Measured values reported in PubChem BioAssay (NCI).
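Step 1: Grow cells in 96-well plates. Step 2: Expose to compound for 48 hours at 5 concentrations. Step 3: Interpolate endpoints linearly; if unreached, use highest concentration. GI50 is the concentration that inhibits growth by half. TGI denotes the concentration required for complete inhibition of growth.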

What was measured:
Assay in all cases: NCI tumour cell line growth inhibition, 48 h
[1] = system: CAKI-1 renal
[2] = system: HL-60(TB) leukemia
[3] = system: K-562 leukemia
[4] = system: M14 melanoma
[5] = system: MALME-3M melanoma
[6] = system: NCI-H226 lung
[7] = system: NCI-H460 lung
[8] = system: SK-MEL-28 melanoma
[9] = system: SN12C renal
[10] = system: UACC-257 melanoma

SMILES	GI50 [1]	TGI [1]	GI50 [2]	TGI [2]	GI50 [3]	TGI [3]	GI50 [4]	TGI [4]	GI50 [5]	TGI [5]	GI50 [6]	TGI [6]	GI50 [7]	TGI [7]	GI50 [8]	TGI [8]	GI50 [9]	TGI [9]	GI50 [10]	TGI [10]
COc1cc(NS(=O)(=O)c2ccc(-c3cnc(C4CC4)o3)cc2)ccc1F	0.408 µM	30.6 µM	0.247 µM	6.86 µM	0.082 µM	> 100 µM	0.269 µM	14.8 µM	0.56 µM	33.9 µM	1.24 µM	22.1 µM	0.447 µM	14.4 µM	1.77 µM	23.5 µM	0.546 µM	18.1 µM	2.43 µM	33.9 µM
O=C(/C=C/c1c(O)ccc2ccccc12)c1ccccc1		> 100 µM		> 100 µM		> 100 µM		> 100 µM		> 100 µM		> 100 µM		> 100 µM		> 100 µM		> 100 µM		> 100 µM
Cc1ccc(C(=O)Nc2ccc(CN3CCN(C)CC3)c(C(F)(F)F)c2)cc1C#Cc1cnc(N)c2ccccc12	0.328 µM	1.05 µM	0.491 µM	2.41 µM	0.005 µM	0.61 µM	0.134 µM	0.701 µM	0.248 µM	0.951 µM	1.16 µM	6.54 µM	0.32 µM	1.08 µM	0.479 µM	1.15 µM	0.191 µM	0.917 µM	0.736 µM	1.73 µM
CCc1ccc(Nc2ccc([N+](=O)[O-])cc2[N+](=O)[O-])cc1		> 100 µM		> 100 µM		> 100 µM		> 100 µM		> 100 µM		99.8 µM		> 100 µM		> 100 µM				> 100 µM
CC(C)c1cc2c(O)c(c1)Cc1cc(C(C)C)cc(c1O)Cc1cc(C(C)C)cc(c1O)Cc1cc(C(C)C)cc(c1O)C2		> 100 µM		> 100 µM		> 100 µM				> 100 µM		> 100 µM		> 100 µM						> 100 µM
COc1ccc(-n2cc(-c3cc(OC)c(OC)c(OC)c3)[nH]c2=O)cc1Cl	> 100 µM	> 100 µM	> 100 µM	> 100 µM	> 100 µM	> 100 µM	> 100 µM	> 100 µM	> 100 µM	> 100 µM	> 100 µM	> 100 µM	> 100 µM	> 100 µM	> 100 µM	> 100 µM	> 100 µM	> 100 µM		
COC(=O)C(=O)C(C(=O)C=C(C)C)C(=O)C(=O)Nc1ccc(C)cc1C (configuration not stated)		> 100 µM		> 100 µM		> 100 µM		> 100 µM		> 100 µM		> 100 µM		> 100 µM		> 100 µM		> 100 µM		> 100 µM
COC(=O)[C@H](Cc1c[nH]c2ccccc12)NC(=O)[C@@H](OC)[C@@H]1Cc2cc3cc(OC4CC(OC5CC(O)C(O)C(C)O5)C(O)C(C)O4)c(C)c(O)c3c(O)c2C(=O)[C@H]1OC1CC(OC2CC(OC3CC(C)(O)C(O)C(C)O3)C(O)C(C)O2)C(O)C(C)O1 (some centres not stated)	0.345 µM	> 16.5 µM	0.0119 µM	0.386 µM	0.0118 µM	> 16.5 µM	0.0169 µM	0.127 µM	0.0039 µM	0.0184 µM	0.0065 µM	0.145 µM	0.00611 µM	> 5.24 µM	0.00424 µM	0.0193 µM	0.00624 µM	7.42 µM	0.00662 µM	0.124 µM
CO[C@H]1C=C[C@@]23c4cc5c(cc4CO[C@]2(O)CN(C)[C@H]3C1)OCO5		> 100 µM		> 100 µM		> 100 µM		> 100 µM		> 100 µM		> 100 µM		> 100 µM		> 100 µM		> 100 µM		> 100 µM
C=C[C@H]1C[C@@H]2C[C@@H]3[C@H]4C/C=C\C(=O)NCCCC5NC(=O)C(=C(O)/C=C/[C@@H]4CC(=O)[C@H]3[C@@H]2[C@H]1C)C5=O (some centres not stated)	0.191 µM	0.374 µM	1.68 µM	3.42 µM			0.253 µM	0.822 µM	0.225 µM	0.56 µM	0.166 µM	0.379 µM	0.348 µM	1.2 µM	0.203 µM	0.399 µM	0.182 µM	0.342 µM	0.191 µM	0.369 µM
COc1ccccc1Cn1cc2c(c1-c1ccccc1)CCc1cnoc1-2	1.86 µM	> 100 µM	1.32 µM	8.36 µM	0.539 µM	> 100 µM	2.06 µM	17.3 µM	1.39 µM	> 100 µM	8.52 µM	> 100 µM	2.65 µM	18.1 µM	27 µM	> 100 µM	6.61 µM	> 100 µM	20.2 µM	> 100 µM
CCN(CC)CCCC(C)Nc1cnc(C(=O)Nc2cccc3ccc(OC)nc23)cn1 (configuration not stated)	1.77 µM	3.76 µM	1.92 µM	3.9 µM	1.8 µM	6.2 µM	1.93 µM	3.71 µM	1.75 µM	3.22 µM	7.52 µM	21.7 µM	2.12 µM	4.66 µM	1.74 µM	3.13 µM	1.77 µM	3.72 µM	2.43 µM	5.98 µM
CCOc1ccc2c(c1)[n+]([O-])c(-c1nc3ccccc3s1)c(N)[n+]2[O-]		> 100 µM		> 100 µM		> 100 µM		> 100 µM		> 100 µM		> 100 µM		> 100 µM		> 100 µM		> 100 µM		> 100 µM
O=C1OC(c2ccco2)=N/C1=C\c1cccc([N+](=O)[O-])c1		> 100 µM		> 100 µM		> 100 µM		> 100 µM		> 100 µM		> 100 µM		> 100 µM		> 100 µM		> 100 µM		> 100 µM
CSc1nc2cc(S(=O)(=O)N3CCCCC3)ccc2s1		> 100 µM		> 100 µM		> 100 µM		> 100 µM		> 100 µM		> 100 µM		> 100 µM		> 100 µM		> 100 µM		> 100 µM
